Source: paper PMC9696794, “Synthesis and Antimicrobial Activity of Short Analogues of the Marine Antimicrobial Peptide Turgencin A: Effects of SAR Optimizations, Cys-Cys Cyclization and Lipopeptide Modifications” (International Journal of Molecular Sciences, 2022)
Where a SMILES comes first, the peptide text is derived from it. The star is where a group is joined. Decanoyl = CCCCCCCCCC(=O)*; Octanoyl = CCCCCCCC(=O)*

Columns and labels:
[1] = tested on: B. subtilis (Bs, ATCC 23857); assay: microbe, parasite or virus in culture; format: cell-based, Bacillus subtilis; conditions: ATCC 23857, 24 h
Procedure: (§1) All cyclic and linear peptides were screened for antibacterial activity against four Gram-positive strains: B. subtilis (Bs, ATCC 23857), C. glutamicum (Cg, ATCC 13032), S. aureus (Sa, ATCC 9144) and S. epidermidis RP62A (Se, ATCC 35984), and two Gram-negative strains: E. coli (Ec, ATCC 25922) and P. aeruginosa (Pa, ATCC 27853). The activity was assessed using a broth microdilution assay according to a modified CLSI-based method. Briefly, overnight bacterial cultures were grown in Mueller–Hinton (MH) broth medium (Difco Laboratories, Detroit, MI, USA) for 2 h at room temperature. The optical density (OD600) was measured, and the bacterial suspensions were adjusted to 2.5–3 × 10^4 CFU/mL in MH medium. The bacterial suspension (50 µL) was distributed in 96-well plates (Nunc, Roskilde, Denmark) preloaded with two-fold dilution series (256 to 1 µg/mL) of peptide solutions (50 µL), giving a final well volume of 100 µL. The microplates were incubated in an EnVision 2103 microplate reader (PerkinElmer, Llantrisant, UK) at 35 °C, with OD595 recorded every hour for 24 h. MIC was defined as the lowest concentration of peptides showing an optical density less than 10% of the negative (growth) control, consisting of bacterial suspension and water. Polymyxin B sulfate (Sigma-Aldrich, St. Louis, MO, USA) and chlorhexidine acetate (CHX, Fresenius Kabi, Halden, Norway), both with concentrations ranging from 12.5 to 0.09 μg/mL, served as positive (growth inhibition) controls. All peptides were tested in triplicate.

[2] = tested on: C. glutamicum (Cg, ATCC 13032); assay: microbe, parasite or virus in culture; format: cell-based, Corynebacterium glutamicum; conditions: ATCC 13032, 24 h
Procedure: as §1

[3] = tested on: S. aureus (Sa, ATCC 9144); assay: microbe, parasite or virus in culture; format: cell-based, Staphylococcus aureus; conditions: ATCC 9144, 24 h
Procedure: as §1

[4] = tested on: S. epidermidis RP62A (Se, ATCC 35984); assay: microbe, parasite or virus in culture; format: cell-based, Staphylococcus epidermidis; conditions: ATCC 35984, 24 h
Procedure: as §1

E. coli (Ec, ATCC 25922) = assay: microbe, parasite or virus in culture; format: cell-based, Escherichia coli; conditions: ATCC 25922, 24 h
Procedure: as §1

[5] = tested on: P. aeruginosa (Pa, ATCC 27853); assay: microbe, parasite or virus in culture; format: cell-based, Pseudomonas aeruginosa; conditions: ATCC 27853, 24 h
Procedure: as §1

all bacterial strains = assay: Antibacterial MIC assay, all bacterial strains together (range or geometric mean); format: cell-based; conditions: for GM (geometric mean of the MIC values against all bacterial strains): Table 1, six bacterial strains; for GM of MIC Tot. bact.: Table S3, all bacterial test strains, MIC >256 set to 256
Procedure: The selectivity index (SI) of the peptides towards bacteria over eukaryotic cells was calculated using the geometric mean (GM) of the MIC values against all bacterial test strains, according to the method by Orlov et al.. The SI for each peptide was determined as the ratio of the RBC-EC50 value by the corresponding GM value. Larger SI values indicate greater selectivity for microbial cells. […] In general, the SI was higher against the Gram-positive bacteral strains than the Gram-negative strains. (Table S3). Overall, peptides displaying EC50 < 100 µg/mL were considered too haemolytic to be of interest for further exploration.
as §1

A. pullulans (Ap) = assay: microbe, parasite or virus in culture; format: cell-based, Aurobasidium pollulans; conditions: 48 h
Procedure: (§2) The synthesized peptides were screened for antifungal activity against the molds A. pullulans (Ap) and Rhodotorula sp. (Rh) (both obtained from Professor Arne Tronsmo, The Norwegian University of Life Sciences, Ås, Norway) and the yeast C. albicans (Ca, ATCC 10231) as previously described. In short, fungal spores were grown in potato dextrose broth media (Difco) containing 2% D(+)-glucose (Merck, Darmstadt, Germany) at 25–30 °C while shaking at 200 rpm overnight. The cultures were diluted with a dextrose media containing glucose to a concentration of approx. 4 × 10^5 spores/mL. Aliquots of the cultures (50 µL) were transferred to 96 well microtiter plates preloaded with the synthetic peptides (50 µL) in two-fold serial dilutions (256 to 1 µg/mL). Polymyxin B and CHX (both with concentrations ranging from 12.5 to 0.09 μg/mL) served as positive antibiotic controls. The microtiter plates containing the fungal spores and the test peptides were incubated at room temperature for 48 h and OD600 was recorded using a Synergy H1 Hybrid microplate reader system (BioTek, Winooski, VT, USA). MIC was defined as the lowest peptide concentration showing an optical density less than 10% of the negative (growth) control. All experiments were performed in triplicate.

[6] = tested on: C. albicans (Ca, ATCC 10231); assay: microbe, parasite or virus in culture; format: cell-based, Candida albicans; conditions: ATCC 10231, 48 h
Procedure: as §2

Rhodotorula sp. (Rh) = assay: microbe, parasite or virus in culture; format: cell-based; conditions: 48 h
Procedure: as §2

[7] = tested on: human red blood cells (RBC); assay: Haemolytic activity assay; format: cell-based; conditions: for Selectivity index (SI) G- / Selectivity index (SI) G+ / Selectivity index (SI) Fungi: Table S3, highest tested concentration used where EC50 above it; for Selectivity index (SI) G-: EC50/GM of Gram-negative strains; for Selectivity index (SI) G+: EC50/GM of Gram-positive strains; for Selectivity index (SI) Fungi: EC50/GM of fungi; for SI (selectivity index = EC50/GM): haemolytic EC50 over GM of MIC against all bacterial strains, Table 1; for RBC Tox. (EC50), haemolytic activity: human RBC, 1 h, 37 °C, concentration giving 50% haemolysis
Procedure: The synthetized lipopeptides were screened for haemolytic activity against human red blood cells (RBC), in concentrations ranging from 500 to 3.9 μM, following a previously described protocol. In brief, haemolysis was determined using a heparinizied (10 IU/mL) fraction of freshly drawn human blood. A second fraction of blood, which was collected in test tubes containing ethylenediaminetetraacetic acid (EDTA, Vacutest, KIMA, Arzergrande, Italy), was used for determination of the hematocrit (hct). Plasma was removed from heparinized blood by washing three times with prewarmed phosphate-buffered saline (PBS) before being adjusted to a hematocrit of 4%. Peptides dissolved in dimethyl sulfoxide (DMSO) were further diluted with PBS to a final DMSO content of ≤1%. Triton X-100 (Sigma-Aldrich, St. Louis, MO, USA), used at a final concentration of 0.1%, served as a positive control for 100% haemolysis, whereas 1% DMSO in PBS buffer served as a negative control where no toxicity was detected. Duplicates of test solutions and erythrocytes, with 1% hct final concentration, were prepared in a 96-well polypropylene V-bottom plate (Nunc, Fischer scientific, Oslo, Norway). They were incubated under agitation at 37 °C and 800 rpm for 1 h. After centrifugation (5 min, 3000× g), 100 µL from each well were transferred to a flat-bottomed 96-well plate and absorbance was measured at 545 nm with a microplate reader (SpectraMax 190, Molecular Devices, San Jose, CA, USA). After subtracting PBS background, the percentage of haemolysis was calculated as the ratio of the absorbance in the peptide-treated and surfactant-treated samples. Three independent experiments were performed, and EC50 (the concentration giving 50% haemolysis) values are presented as averages.

[8] = tested on: Gram-positive bacterial strains; conditions: for GM of MIC G+: Table S3, MIC >256 set to 256
Procedure: as §1

[9] = tested on: Gram-negative bacterial strains (E. coli and P. aeruginosa); assay: Antibacterial MIC assay, Gram-negative strains together (range or geometric mean); format: cell-based; conditions: Table S3; MIC >256 set to 256
Procedure: as §1

[10] = tested on: fungi (A. pullulans, C. albicans, Rhodotorula sp.); assay: Antifungal MIC assay, all fungi together (range or geometric mean); format: cell-based; conditions: Table S3; MIC >128 set to 128
Procedure: as §2

| Structure (SMILES) | Antimicrobial Activity (MIC) Gram + Bs [1] [µg/mL] | Antimicrobial Activity (MIC) Gram + Cg [2] [µg/mL] | Antimicrobial Activity (MIC) Gram + Sa [3] [µg/mL] | Antimicrobial Activity (MIC) Gram + Se [4] [µg/mL] | Antimicrobial Activity (MIC) Gram − Ec (E. coli (Ec, ATCC 25922)) [µg/mL] | Antimicrobial Activity (MIC) Gram − Pa [5] [µg/mL] | GM (geometric mean of the MIC values against all bacterial strains) (all bacterial strains) [µg/mL] | GM of MIC Tot. bact. (all bacterial strains) [µg/mL] | Antimicrobial Activity (MIC) Fungi Ap (A. pullulans (Ap)) [µg/mL] | Antimicrobial Activity (MIC) Fungi Ca [6] [µg/mL] | Antimicrobial Activity (MIC) Fungi Rh (Rhodotorula sp. (Rh)) [µg/mL] | Selectivity index (SI) G- [7] | Selectivity index (SI) G+ [7] | Selectivity index (SI) Fungi [7] | SI (selectivity index = EC50/GM) [7] | RBC Tox. (EC50), haemolytic activity [7] [µg/mL] | MIC against the Gram-positive bacterial strains ([8]; 2 h) [µg/mL] | GM of MIC G+ [8] [µg/mL] | GM of MIC G- [9] [µg/mL] | GM of MIC Fungi [10] [µg/mL] |
| --- | --- | --- | --- | --- | --- | --- | --- | --- | --- | --- | --- | --- | --- | --- | --- | --- | --- | --- | --- | --- |
| CCCCCCCC(=O)N[C@@H](CS)C(=O)NCC(=O)N[C@@H](CCCCN)C(=O)N[C@@H](CCCCN)C(=O)N[C@@H](Cc1c[nH]c2ccccc12)C(=O)N[C@@H](Cc1c[nH]c2ccccc12)C(=O)NCC(=O)N[C@@H](Cc1c[nH]c2ccccc12)C(=O)N[C@@H](CCCCN)C(=O)N[C@@H](CS)C(=O)N[C@@H](CCCCN)C(=O)N[C@@H](CC(C)C)C(N)=O [Peptide C8-Turg-2, C8- CGKKWWGWKC KL-NH2] (Octanoyl-CGKKWWGWKCKL-NH2) | 8 | 4 | 8 | 8 | 16 | 16 | 9 | 9 | 32 | 64 | 32 | 12 | 29 | 5 | 22 | 198 | 4 to 8 | 7 | 16 | 40 |
| CCCCCCCC(=O)N[C@@H](CS)C(=O)NCC(=O)N[C@@H](CCCNC(=N)N)C(=O)N[C@@H](CCCNC(=N)N)C(=O)N[C@@H](Cc1c[nH]c2ccccc12)C(=O)NCC(=O)N[C@@H](Cc1c[nH]c2ccccc12)C(=O)N[C@@H](Cc1c[nH]c2ccccc12)C(=O)N[C@@H](CCCNC(=N)N)C(=O)N[C@@H](CS)C(=O)N[C@@H](CCCNC(=N)N)C(=O)N[C@@H](CC(C)C)C(N)=O [Peptide C8-Turg-6, C8- CGRRWGWWRC RL-NH2] (Octanoyl-CGRRWGWWRCRL-NH2) | 4 | 4 | 16 | 8 | 8 | 32 | 9 | 9 | 128 | 64 | 128 | 3 | 8 | 1 | 6 | 54 |  | 7 | 16 | 102 |
| CCCCCCCCCC(=O)N[C@@H](CS)C(=O)NCC(=O)N[C@@H](CCCCN)C(=O)N[C@@H](CCCCN)C(=O)N1CCC[C@H]1C(=O)NCC(=O)NCC(=O)N[C@@H](Cc1c[nH]c2ccccc12)C(=O)N[C@@H](CCCCN)C(=O)N[C@@H](CS)C(=O)N[C@@H](CCCCN)C(=O)N[C@@H](CC(C)C)C(N)=O [Peptide C10-Turg-1, C10- CGKKPGGWKC KL-NH2] (Decanoyl-CGKKPGGWKCKL-NH2) | 4 | 4 | 16 | 8 | 16 | 32 | 10 | 10 | 32 | 64 | 8 | > 42 | > 142 | > 38 | >95 | >957 |  | 7 | 23 | 25 |
